Source: PMC10795023, “Structural Optimization and Biological Evaluation of Isoxazolo[5,4-d]pyrimidines as Selective Toll-Like Receptor 7 Agonists” (ACS Omega, 2024)
Read-outs that look alike come from different tables or passages of the source.

Biological target: T1, hTLR7 (Homo sapiens, UniProt Q9NYK1)
T1 construct: host or cells: HEK293
T1 sequence (Q9NYK1 27-1049): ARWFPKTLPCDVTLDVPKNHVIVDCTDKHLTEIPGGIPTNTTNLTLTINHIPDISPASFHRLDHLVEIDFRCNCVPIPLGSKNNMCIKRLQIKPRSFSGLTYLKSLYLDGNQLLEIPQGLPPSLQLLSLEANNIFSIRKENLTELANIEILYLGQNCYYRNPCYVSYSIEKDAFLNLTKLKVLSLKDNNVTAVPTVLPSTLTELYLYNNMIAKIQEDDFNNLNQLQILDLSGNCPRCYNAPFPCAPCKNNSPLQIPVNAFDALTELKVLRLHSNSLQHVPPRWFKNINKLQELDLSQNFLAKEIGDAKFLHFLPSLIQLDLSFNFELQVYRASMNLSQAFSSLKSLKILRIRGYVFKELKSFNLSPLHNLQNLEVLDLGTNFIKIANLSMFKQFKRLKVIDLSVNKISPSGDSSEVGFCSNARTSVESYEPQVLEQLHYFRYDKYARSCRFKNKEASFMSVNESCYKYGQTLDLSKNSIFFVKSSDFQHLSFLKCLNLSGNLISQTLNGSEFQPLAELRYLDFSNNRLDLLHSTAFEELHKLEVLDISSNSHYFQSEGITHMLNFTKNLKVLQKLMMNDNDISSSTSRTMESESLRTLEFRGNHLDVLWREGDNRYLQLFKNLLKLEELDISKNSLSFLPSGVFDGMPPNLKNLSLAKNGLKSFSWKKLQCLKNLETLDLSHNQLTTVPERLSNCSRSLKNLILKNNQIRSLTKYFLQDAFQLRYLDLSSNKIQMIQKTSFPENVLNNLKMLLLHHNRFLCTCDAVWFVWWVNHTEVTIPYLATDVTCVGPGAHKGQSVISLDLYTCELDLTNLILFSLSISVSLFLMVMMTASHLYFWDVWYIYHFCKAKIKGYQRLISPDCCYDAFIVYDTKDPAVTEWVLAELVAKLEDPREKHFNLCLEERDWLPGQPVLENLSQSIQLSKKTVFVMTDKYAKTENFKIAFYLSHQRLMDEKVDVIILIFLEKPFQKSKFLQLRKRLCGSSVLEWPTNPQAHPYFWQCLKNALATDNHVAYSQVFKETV
Assay: TLR7 agonist activity, HEK293 hTLR7 SEAP reporter assay
Format: cell-based
Details: for EC50: HEK293 cotransfected with hTLR7 and inducible SEAP reporter gene, 24 h treatment, average ± SD of three independent replicates, n.a. = not active; for loss of activity/potency on TLR7 relative to parent compound 21a / plateau / maximum response (efficacy): HEK293-hTLR7 SEAP; for loss of activity/potency on TLR7 relative to parent compound 21a: EC50 compared with 21a; for plateau / maximum response (efficacy): less than twofold increase in maximum response
Method: TLR7 agonist activities were determined using the HEK293 cell line, which was cotransfected with the hTLR7 gene and an inducible SEAP reporter gene (InvivoGen, San Diego, California, USA) as described previously.[34] Briefly, cells were seeded in 96-well plates (3 × 10^4 cells/well) and incubated at 5% CO2 and 37 °C. After 24 h, the cells were treated with the solutions of the compounds in DMSO. Imiquimod was used as a PC. The cells were incubated again for 24 h under the same conditions. The activity of SEAP in the supernatant of the cells was measured using the QUANTI-Blue reagent (InvivoGen, San Diego, California, USA), according to the manufacturer's protocol. EC50 values were determined using GraphPad Prism 9.2.0. software (San Diego, California, USA) using the nonlinear regression curve fit and four-parameter logistic equation. All experiments were performed in three independent biological replicates. Values are given as averages from the independent measurements with standard deviations calculated.

Compound	EC50	EC50 (read-out: EC50) [µM]	loss of activity/potency on TLR7 relative to parent compound 21a	plateau / maximum response (efficacy)
CC1CCCN(c2nc(C(F)(F)F)nc3onc(-c4ccccc4)c23)C1 (stereo not shown) [Compound 14a, 4-(3-Methylpiperidin-1-yl)-3-phenyl-6-(trifluoromethyl)isoxazolo[5,4-d]pyrimidine]	inactive			
CC(C)CNc1nc(C(F)(F)F)nc2onc(-c3ccccc3)c12 [Compound 14b, N-Isobutyl-3-phenyl-6-(trifluoromethyl)isoxazolo[5,4-d]pyrimidin-4-amine]	inactive			
CC1CCCN(c2nc(C(F)(F)F)nc3onc(-c4ccc(Cl)cc4)c23)C1 (stereo not shown) [Compound 15a, 3-(4-Chlorophenyl)-4-(3-methylpiperidin-1-yl)-6-(trifluoromethyl)isoxazolo[5,4-d]pyrimidine]		21.4 ± 2.8		
CC(C)CNc1nc(C(F)(F)F)nc2onc(-c3ccc(Cl)cc3)c12 [Compound 15b, 3-(4-Chlorophenyl)-N-isobutyl-6-(trifluoromethyl)isoxazolo[5,4-d]pyrimidin-4-amine]	agonist activity was lost			
CC1CCCN(c2nc(C(F)(F)F)nc3onc(-c4ccc(C(F)(F)F)cc4)c23)C1 (stereo not shown) [Compound 16a, 4-(3-Methylpiperidin-1-yl)-6-(trifluoromethyl)-3-(4-(trifluoromethyl)phenyl)isoxazolo[5,4-d]pyrimidine]		> 150		
CC1CCCN(c2nc(C(F)(F)F)nc3onc(-c4cccc([N+](=O)[O-])c4)c23)C1 (stereo not shown) [Compound 19a, 4-(3-Methylpiperidin-1-yl)-3-(3-nitrophenyl)-6-(trifluoromethyl)isoxazolo[5,4-d]pyrimidine]	did not offer any change in activity			
CC(C)CNc1nc(C(F)(F)F)nc2onc(-c3cccc([N+](=O)[O-])c3)c12 [Compound 19b, N-Isobutyl-3-(3-nitrophenyl)-6-(trifluoromethyl)isoxazolo[5,4-d]pyrimidin-4-amine]	did not offer any change in activity			
CC1CCCN(c2nc(C(F)(F)F)nc3onc(-c4ccc(F)c(Br)c4)c23)C1 (stereo not shown) [Compound 22, 3-(3-Bromo-4-fluorophenyl)-4-(3-methylpiperidin-1-yl)-6-(trifluoromethyl)isoxazolo[5,4-d]pyrimidine]		16.4 ± 0.1		

The next lines start with the values.

EC50	EC50 (read-out: EC50) [µM]	loss of activity/potency on TLR7 relative to parent compound 21a	plateau / maximum response (efficacy)	Compound
no activity observed				CC(C)CNc1nc(C(F)(F)F)nc2onc(-c3ccc(F)cc3)c12 [Compound 21b, 3-(4-Fluorophenyl)-N-isobutyl-6-(trifluoromethyl)isoxazolo[5,4-d]pyrimidin-4-amine]
inactive				Fc1ccc(-c2noc3nc(C(F)(F)F)nc(NC4CC4)c23)cc1 [Compound 21c, N-Cyclopropyl-3-(4-fluorophenyl)-6-(trifluoromethyl)isoxazolo[5,4-d]pyrimidin-4-amine]
	63.3 ± 9.8	Approximately 10 fold	low plateau response	CC1CCCCN1c1nc(C(F)(F)F)nc2onc(-c3ccc(F)cc3)c12 (stereo not shown) [Compound 21e, 3-(4-Fluorophenyl)-4-(2-methylpiperidin-1-yl)-6-(trifluoromethyl)isoxazolo[5,4-d]pyrimidine]
	68 ± 8.1	Approximately 10 fold	low plateau response	CC1CCN(c2nc(C(F)(F)F)nc3onc(-c4ccc(F)cc4)c23)CC1 [Compound 21f, 3-(4-Fluorophenyl)-4-(4-methylpiperidin-1-yl)-6-(trifluoromethyl)isoxazolo[5,4-d]pyrimidine]
retained the potency	11 ± 0.1		low plateau response	CC1CN(c2nc(C(F)(F)F)nc3onc(-c4ccc(F)cc4)c23)CCO1 (stereo not shown) [Compound 21g, 3-(4-Fluorophenyl)-4-(2-methylmorpholino)-6-(trifluoromethyl)isoxazolo[5,4-d]pyrimidine]
lacked activity				CC1CN(c2nc(C(F)(F)F)nc3onc(-c4ccc(F)cc4)c23)CCN1 (stereo not shown) [Compound 21h, 3-(4-Fluorophenyl)-4-(3-methylpiperazin-1-yl)-6-(trifluoromethyl)isoxazolo[5,4-d]pyrimidine]
lacked activity	> 150			CN1CCN(c2nc(C(F)(F)F)nc3onc(-c4ccc(F)cc4)c23)CC1 [Compound 21j, 3-(4-Fluorophenyl)-4-(4-methylpiperazin-1-yl)-6-(trifluoromethyl)isoxazolo[5,4-d]pyrimidine]
slightly less potent	24.5 ± 1.6			CC1(C)CCCN(c2nc(C(F)(F)F)nc3onc(-c4ccc(F)cc4)c23)C1 [Compound 21o, 4-(3,3-Dimethylpiperidin-1-yl)-3-(4-fluorophenyl)-6-(trifluoromethyl)isoxazolo[5,4-d]pyrimidine]
slightly less potent	17.5 ± 3			Fc1ccc(-c2noc3nc(C(F)(F)F)nc(N4CCCC5(CC5)C4)c23)cc1 [Compound 21p, 3-(4-Fluorophenyl)-4-(5-azaspiro[2.5]octan-5-yl)-6-(trifluoromethyl)isoxazolo[5,4-d]pyrimidine]
	81.1 ± 7	Approximately 10 fold		CC(C)C1CCCN(c2nc(C(F)(F)F)nc3onc(-c4ccc(F)cc4)c23)C1 (stereo not shown) [Compound 21q, 3-(4-Fluorophenyl)-4-(3-isopropylpiperidin-1-yl)-6-(trifluoromethyl)isoxazolo[5,4-d]pyrimidine]
	> 150			COC1CCN(c2nc(C(F)(F)F)nc3onc(-c4ccc(F)cc4)c23)C1 (stereo not shown) [Compound 21t, 3-(4-Fluorophenyl)-4-(3-methoxypyrrolidin-1-yl)-6-(trifluoromethyl)isoxazolo[5,4-d]pyrimidine]
	> 150			Fc1ccc(-c2noc3nc(C(F)(F)F)nc(N4CCCC4)c23)cc1 [Compound 21v, 3-(4-Fluorophenyl)-4-(pyrrolidin-1-yl)-6-(trifluoromethyl)isoxazolo[5,4-d]pyrimidine]
retained its activity	15.9 ± 0.9		low plateau response	CC1CCCC(c2nc(C(F)(F)F)nc3onc(-c4ccc(F)cc4)c23)C1 (stereo not shown) [Compound 21y, 3-(4-Fluorophenyl)-4-(3-methylcyclohexyl)-6-(trifluoromethyl)isoxazolo[5,4-d]pyrimidine]
	19.9 ± 3.1			CC1CCCN(c2nc(C(F)(F)F)nc3onc(Cc4ccc(F)c(F)c4)c23)C1 (stereo not shown) [Compound 23a, 3-(3,4-Difluorobenzyl)-4-(3-methylpiperidin-1-yl)-6-(trifluoromethyl)isoxazolo[5,4-d]pyrimidine]
